From patent US20260345619A1 (Principia Biopharma Inc., priority 2023, published 2026)

Assay: Pre-bronchodilator FEV1 and percent predicted FEV1 by spirometry, change from baseline
Format: in vivo, human
Experimental: Spirometry is a standard test to measure patients' lung function.
The primary endpoint was the proportion of patients with LOAC. The key secondary endpoint for the study was change in pre-bronchodilator FEV1 from baseline at EOT.
Reversibility is defined as an increase of the absolute FEV1 after administration of bronchodilator and is measured by spirometry as postbronchodilator increase in FEV1 in percent of the prebronchodilator FEV1. After spirometry for measuring prebronchodilator FEV1, participants were to receive 2-4 puffs of albuterol/salbutamol or levalbuterol/levosalbutamol from a primed MDI. The postbronchodilator spirometry may have been repeated several times within 30 minutes after administration of bronchodilator. Alternatively, and only if it was consistent with usual office practice (to be documented), reversibility may have been performed using inhalation of nebulized albuterol/salbutamol or levalbuterol/levosalbutamol.
Secondary endpoints included pre-bronchodilator FEV1 change from baseline at EOT, ACQ-5 score change from baseline, and AQLQ score change from baseline. Other secondary and exploratory endpoints are described in Table 2.

[1] = 400 mg BID, Week 12, before LOAC and OCS use, as observed, mITT
[2] = 400 mg BID, Week 12, observed/LOCF imputed, mITT
[3] = 400 mg BID, Week 12, on-site conventional spirometry as observed, mITT
[4] = 400 mg BID, Week 12, reduced model, mITT
[5] = 400 mg BID, Week 16, before LOAC and OCS use, as observed, mITT
[6] = 400 mg BID, Week 16, on-site conventional spirometry as observed, mITT
[7] = 400 mg TID, Week 12, 1 exacerbation within 2 years
[8] = 400 mg TID, Week 12, 2 exacerbations within 2 years
[9] = 400 mg TID, Week 12, Eastern Europe
[10] = 400 mg TID, Week 12, Latin America
[11] = 400 mg TID, Week 12, age <45 years
[12] = 400 mg TID, Week 12, age ≥45 years
[13] = 400 mg TID, Week 12, asthma onset age <12 years
[14] = 400 mg TID, Week 12, asthma onset age <18 years
[15] = 400 mg TID, Week 12, asthma onset age ≥12-<18 years
[16] = 400 mg TID, Week 12, asthma onset age ≥18-<40 years
[17] = 400 mg TID, Week 12, asthma onset age ≥18 years
[18] = 400 mg TID, Week 12, asthma onset age ≥40 years
[19] = 400 mg TID, Week 12, atopic medical conditions: No
[20] = 400 mg TID, Week 12, atopic medical conditions: Yes
[21] = 400 mg TID, Week 12, background ICS dose High
[22] = 400 mg TID, Week 12, background ICS dose Medium
[23] = 400 mg TID, Week 12, baseline ACQ-5 >2
[24] = 400 mg TID, Week 12, baseline ACQ-5 ≤2
[25] = 400 mg TID, Week 12, baseline BMI <25 kg/m^2
[26] = 400 mg TID, Week 12, baseline BMI ≥25-<30 kg/m^2
[27] = 400 mg TID, Week 12, baseline BMI ≥30 kg/m^2
[28] = 400 mg TID, Week 12, baseline FEV1 <2.1955 L (median)
[29] = 400 mg TID, Week 12, baseline FEV1 reversibility <12%
[30] = 400 mg TID, Week 12, baseline FEV1 reversibility ≥12%
[31] = 400 mg TID, Week 12, baseline FEV1 ≥2.1955 L (median)
[32] = 400 mg TID, Week 12, baseline FeNO <25 ppb
[33] = 400 mg TID, Week 12, baseline FeNO <35 ppb
[34] = 400 mg TID, Week 12, baseline FeNO ≥25 ppb

CC(C)(C=C(C#N)C(=O)N1CCC[C@@H](n2nc(-c3ccc(Oc4ccccc4)cc3F)c3c(N)ncnc32)C1)N1CCN(C2COC2)CC1 (mixture of isomers) [rilzabrutinib, (R)-2-[3-[4-amino-3-(2-fluoro-4-phenoxy-phenyl)pyrazolo[3,4-d]pyrimidin-1-yl]piperidine-1-carbonyl]-4-methyl-4-[4-(oxetan-3-yl)piperazin-1-yl]pent-2-enenitrile]
Pre-bronchodilator FEV1 change from baseline, median [1]: -0.04 L | Pre-bronchodilator FEV1 percent change from baseline, mean [1]: −2.63% | Pre-bronchodilator FEV1 percent change from baseline, median [1]: −2.04% | Change from baseline in pre-bronchodilator FEV1, Mean [2]: -0.04 L | Change from baseline in pre-bronchodilator FEV1, Median [2]: -0.02 L | Pre-bronchodilator FEV1, Mean [2]: 2.02 L | Pre-bronchodilator FEV1, Median [2]: 1.88 L | Pre-bronchodilator FEV1, mean [2]: 2.02 L | Pre-bronchodilator FEV1, median [2]: 1.88 L | Pre-bronchodilator FEV1 change from baseline, LS Mean [2]: -0.07 L | Pre-bronchodilator FEV1 change from baseline, LS Mean Diff vs. placebo [2]: 0.01 L | Pre-bronchodilator FEV1 change from baseline, Mean [2]: -0.04 L | Pre-bronchodilator FEV1 change from baseline, median [2]: -0.02 L | Pre-bronchodilator FEV1, mean [3]: 1.97 L | Pre-bronchodilator FEV1, median [3]: 1.82 L | Pre-bronchodilator FEV1 change from baseline, Mean [3]: -0.03 L | Pre-bronchodilator FEV1 change from baseline, median [3]: -0.05 L | Pre-bronchodilator FEV1 percent change from baseline, mean [3]: −3.27% | Pre-bronchodilator FEV1 percent change from baseline, median [3]: −2.70% | Change from baseline in pre-bronchodilator FEV1, LS Mean [4]: -0.07 L | Change from baseline in pre-bronchodilator FEV1, LS Mean diff vs. placebo [4]: 0.01 L | Pre-bronchodilator FEV1, mean [5]: 2.30 L | Pre-bronchodilator FEV1, median [5]: 2.01 L | Pre-bronchodilator FEV1 change from baseline, Mean [5]: 0.29 L | Pre-bronchodilator FEV1 change from baseline, median [5]: 0.28 L | Pre-bronchodilator FEV1 percent change from baseline, mean [5]: 13.96% | Pre-bronchodilator FEV1 percent change from baseline, median [5]: 15.23% | Pre-bronchodilator FEV1, mean [6]: 2.30 L | Pre-bronchodilator FEV1, median [6]: 2.01 L | Pre-bronchodilator FEV1 change from baseline, Mean [6]: 0.29 L | Pre-bronchodilator FEV1 change from baseline, median [6]: 0.28 L | Pre-bronchodilator FEV1 percent change from baseline, mean [6]: 13.96% | Pre-bronchodilator FEV1 percent change from baseline, median [6]: 15.23% | Pre-bronchodilator FEV1 change from baseline, LS Mean [7]: -0.14 L | Pre-bronchodilator FEV1 change from baseline, LS Mean Diff vs. placebo [7]: -0.13 L | Pre-bronchodilator FEV1 change from baseline, Mean [7]: -0.16 L | Pre-bronchodilator FEV1 change from baseline, LS Mean [8]: -0.08 L | Pre-bronchodilator FEV1 change from baseline, LS Mean Diff vs. placebo [8]: 0.06 L | Pre-bronchodilator FEV1 change from baseline, Mean [8]: -0.16 L | Pre-bronchodilator FEV1 change from baseline, Mean (400 mg TID, Week 12, >2 exacerbations within 2 years): 0.01 L | Pre-bronchodilator FEV1 change from baseline, LS Mean [9]: -0.18 L | Pre-bronchodilator FEV1 change from baseline, LS Mean Diff vs. placebo [9]: -0.08 L | Pre-bronchodilator FEV1 change from baseline, Mean [9]: -0.18 L | Pre-bronchodilator FEV1 change from baseline, LS Mean [10]: -0.08 L | Pre-bronchodilator FEV1 change from baseline, LS Mean Diff vs. placebo [10]: -0.12 L | Pre-bronchodilator FEV1 change from baseline, Mean [10]: -0.08 L | Pre-bronchodilator FEV1 change from baseline, Mean (400 mg TID, Week 12, Western Countries): -0.18 L | Pre-bronchodilator FEV1 change from baseline, LS Mean [11]: -0.24 L | Pre-bronchodilator FEV1 change from baseline, LS Mean Diff vs. placebo [11]: -0.18 L | Pre-bronchodilator FEV1 change from baseline, Mean [11]: -0.24 L | Pre-bronchodilator FEV1 change from baseline, LS Mean [12]: -0.04 L | Pre-bronchodilator FEV1 change from baseline, LS Mean Diff vs. placebo [12]: -0.01 L | Pre-bronchodilator FEV1 change from baseline, Mean [12]: -0.08 L | Pre-bronchodilator FEV1 change from baseline, LS Mean [13]: -0.34 L | Pre-bronchodilator FEV1 change from baseline, LS Mean Diff vs. placebo [13]: -0.28 L | Pre-bronchodilator FEV1 change from baseline, Mean [13]: -0.25 L | Pre-bronchodilator FEV1 change from baseline, LS Mean [14]: -0.25 L | Pre-bronchodilator FEV1 change from baseline, LS Mean Diff vs. placebo [14]: -0.27 L | Pre-bronchodilator FEV1 change from baseline, Mean [14]: -0.18 L | Pre-bronchodilator FEV1 change from baseline, LS Mean [15]: 0.05 L | Pre-bronchodilator FEV1 change from baseline, LS Mean Diff vs. placebo [15]: -0.40 L | Pre-bronchodilator FEV1 change from baseline, Mean [15]: -0.01 L | Pre-bronchodilator FEV1 change from baseline, LS Mean [16]: -0.18 L | Pre-bronchodilator FEV1 change from baseline, LS Mean Diff vs. placebo [16]: -0.08 L | Pre-bronchodilator FEV1 change from baseline, Mean [16]: -0.17 L | Pre-bronchodilator FEV1 change from baseline, LS Mean [17]: -0.10 L | Pre-bronchodilator FEV1 change from baseline, LS Mean Diff vs. placebo [17]: -0.02 L | Pre-bronchodilator FEV1 change from baseline, Mean [17]: -0.14 L | Pre-bronchodilator FEV1 change from baseline, LS Mean [18]: 0.01 L | Pre-bronchodilator FEV1 change from baseline, LS Mean Diff vs. placebo [18]: 0.06 L | Pre-bronchodilator FEV1 change from baseline, Mean [18]: -0.07 L | Pre-bronchodilator FEV1 change from baseline, LS Mean [19]: -0.15 L | Pre-bronchodilator FEV1 change from baseline, LS Mean Diff vs. placebo [19]: -0.11 L | Pre-bronchodilator FEV1 change from baseline, Mean [19]: -0.18 L | Pre-bronchodilator FEV1 change from baseline, LS Mean [20]: -0.12 L | Pre-bronchodilator FEV1 change from baseline, LS Mean Diff vs. placebo [20]: -0.04 L | Pre-bronchodilator FEV1 change from baseline, Mean [20]: -0.09 L | Pre-bronchodilator FEV1 change from baseline, LS Mean [21]: -0.13 L | Pre-bronchodilator FEV1 change from baseline, LS Mean Diff vs. placebo [21]: -0.07 L | Pre-bronchodilator FEV1 change from baseline, Mean [21]: -0.13 L | Pre-bronchodilator FEV1 change from baseline, LS Mean [22]: -0.15 L | Pre-bronchodilator FEV1 change from baseline, LS Mean Diff vs. placebo [22]: -0.10 L | Pre-bronchodilator FEV1 change from baseline, Mean [22]: -0.18 L | Pre-bronchodilator FEV1 change from baseline, LS Mean [23]: -0.15 L | Pre-bronchodilator FEV1 change from baseline, LS Mean Diff vs. placebo [23]: -0.16 L | Pre-bronchodilator FEV1 change from baseline, Mean [23]: -0.17 L | Pre-bronchodilator FEV1 change from baseline, LS Mean [24]: -0.12 L | Pre-bronchodilator FEV1 change from baseline, LS Mean Diff vs. placebo [24]: -0.01 L | Pre-bronchodilator FEV1 change from baseline, Mean [24]: -0.10 L | Pre-bronchodilator FEV1 change from baseline, LS Mean [25]: -0.19 L | Pre-bronchodilator FEV1 change from baseline, LS Mean Diff vs. placebo [25]: -0.16 L | Pre-bronchodilator FEV1 change from baseline, Mean [25]: -0.21 L | Pre-bronchodilator FEV1 change from baseline, LS Mean [26]: -0.11 L | Pre-bronchodilator FEV1 change from baseline, LS Mean Diff vs. placebo [26]: -0.05 L | Pre-bronchodilator FEV1 change from baseline, Mean [26]: -0.14 L | Pre-bronchodilator FEV1 change from baseline, LS Mean [27]: -0.11 L | Pre-bronchodilator FEV1 change from baseline, LS Mean Diff vs. placebo [27]: -0.07 L | Pre-bronchodilator FEV1 change from baseline, Mean [27]: -0.14 L | Pre-bronchodilator FEV1 change from baseline, LS Mean [28]: -0.03 L | Pre-bronchodilator FEV1 change from baseline, LS Mean Diff vs. placebo [28]: -0.09 L | Pre-bronchodilator FEV1 change from baseline, Mean [28]: -0.05 L | Pre-bronchodilator FEV1 change from baseline, LS Mean [29]: -0.16 L | Pre-bronchodilator FEV1 change from baseline, LS Mean Diff vs. placebo [29]: -0.12 L | Pre-bronchodilator FEV1 change from baseline, Mean [29]: -0.18 L | Pre-bronchodilator FEV1 change from baseline, LS Mean [30]: -0.01 L | Pre-bronchodilator FEV1 change from baseline, LS Mean Diff vs. placebo [30]: -0.02 L | Pre-bronchodilator FEV1 change from baseline, Mean [30]: 0.00 L | Pre-bronchodilator FEV1 change from baseline, LS Mean [31]: -0.22 L | Pre-bronchodilator FEV1 change from baseline, LS Mean Diff vs. placebo [31]: -0.09 L | Pre-bronchodilator FEV1 change from baseline, Mean [31]: -0.21 L | Pre-bronchodilator FEV1 change from baseline, LS Mean [32]: -0.16 L | Pre-bronchodilator FEV1 change from baseline, LS Mean Diff vs. placebo [32]: -0.12 L | Pre-bronchodilator FEV1 change from baseline, Mean [32]: -0.19 L | Pre-bronchodilator FEV1 change from baseline, LS Mean [33]: -0.14 L | Pre-bronchodilator FEV1 change from baseline, LS Mean Diff vs. placebo [33]: -0.09 L | Pre-bronchodilator FEV1 change from baseline, Mean [33]: -0.18 L | Pre-bronchodilator FEV1 change from baseline, LS Mean [34]: -0.09 L | Pre-bronchodilator FEV1 change from baseline, LS Mean Diff vs. placebo [34]: -0.04 L | Pre-bronchodilator FEV1 change from baseline, Mean [34]: -0.09 L | Pre-bronchodilator FEV1 change from baseline, LS Mean (400 mg TID, Week 12, baseline FeNO ≥35 ppb): -0.07 L
